Experimental data published in patent publication US20250092017A1, “2-PIPERIDYL OR 2-PYRAZOLYL SUBSTITUTED PYRIMIDINE COMPOUND SERVING AS EGFR INHIBITOR” (SUZHOU PUHE BIOPHARMA CO., LTD., priority 2022, published 2025).

Experiments:
[1] = Liver microsome stability test, human; type: in vitro ADME; settings: human liver microsomes 0.5 mg/ml, compound 1 μM, NADPH 1 mM, within 60 minutes
Method: The compounds of the present disclosure were subjected to a liver microsome stability test. The compounds to be tested were co-incubated with liver microsomes of different species with or without the addition of NADPH. The final concentration of the compounds to be tested in the test system was 1 μM. The final concentration of NADPH was 1 mM, and the final concentration of liver microsomes was 0.5 mg/ml.

Ba/F3-FL-EGFR = target: T1, Ba/F3-FL-EGFR (Homo sapiens, UniProt P00533); assay: CellTiter-Glo proliferation, Ba/F3-FL-EGFR; type: cell-based; settings: 72 hours, read-out: Ba/F3-FL-EGFR IC50/nM
T1 construct: FL read as full length
How it was run: (§1)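 Ba/F3 lines dependent on the indicated EGFR variants were treated with compounds at a final DMSO concentration of 0.1% at 37 °C, 5% CO2. Viability was read by CellTiter-Glo luminescence, and inhibition rate was normalised to DMSO-treated cells (max) and medium-only wells (min). IC50 came from inhibition curves.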

[2] = target: Ba/F3-FL-EGFR-del19-T790M-C797S (Homo sapiens, UniProt P00533, DEL746-750/T790M/C797S, cells depend on it); assay: CellTiter-Glo proliferation, Ba/F3-FL-EGFR-del19-T790M-C797S; type: cell-based; settings: 72 hours, read-out: Ba/F3-FL-EGFR-del19-T790M-C797S IC50/nM
Method: Promega CellTiter-Glo reagent was used to detect the effects of small molecule inhibitors on the proliferation of three Ba/F3 cell lines (Ba/F3-FL-EGFR-de119, Ba/F3-FL-EGFR-de119-T790M, Ba/F3-FL-EGFR-de119-T790M-C797S).
The cell lines were cultured in an incubator at 37° C. and 5% CO2. Cells were passaged regularly and cells in the logarithmic phase were used for plating. 95 μL of cell suspension was added to each well of the cell plate, and culture medium without cells (containing 0.1% DMSO) was added to the Min control wells. Substance addition for compound detection cell plate: 5 μL of 20× compound working solution was added to the cell culture plate. 5 μL of DMSO-cell culture medium mixture was added to the Max control, with the final DMSO concentration of 0.1%. 5 μL of DMSO-cell culture medium mixture was added to the Max control. The final DMSO concentration was 0.1%.
Cell viability was detected by CellTiter-Glo luminescence assay. Data analysis:
The cell proliferation inhibition rate (Inhibition Rate) data was processed using the following formula: […]
wherein: RLUDrug represents the relative luminescence unit of the cells with the addition of drug, RLUMin represents the luminescence unit of the culture medium, and RLUMax represents the relative luminescence unit of the cells with the addition of DMSO.
The inhibition rates corresponding to different concentrations of compounds were calculated in EXCEL, and then the inhibition rate curve was plotted using GraphPad Prism software and related parameters including the maximum and minimum inhibition rates of cells and IC50 values were calculated.

[3] = target: Ba/F3-FL-EGFR-L858R-T790M-C797S (Homo sapiens, UniProt P00533, T790M/C797S/L858R, cells depend on it); assay: CellTiter-Glo proliferation, Ba/F3-FL-EGFR-L858R-T790M-C797S; type: cell-based; settings: 72 hours, read-out: Ba/F3-FL-EGFR-L858R-T790M-C797S IC50/nM
How it was run: as §1

EGFR (L858R/C797S) = EGFR (L858R/C797S) (Homo sapiens, UniProt P00533, C797S/L858R); assay: MSA (Mobility Shift Assay) kinase activity, EGFR-L858R-C797S; type: biochemical
How it was run: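 Kinase preincubated with compound 10 min at room temperature, then reaction started with ATP plus substrate in 1x kinase buffer and run at room temperature. Substrate-to-product conversion read by mobility shift; % inhibition normalised to no-enzyme and no-compound controls, IC50 from variable-slope four-parameter fit.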

[4] = target: Ba/F3-FL-EGFR-Del19 (E746-A750) (Homo sapiens, UniProt P00533, DEL746-750, cells depend on it); assay: CellTiter-Glo proliferation, Ba/F3-FL-EGFR-Del19; settings: read-out: Ba/F3-FL-EGFR-Del19 (E746-A750), 72 hours
Ba/F3-FL-EGFR-Del19 (E746-A750), sequence (P00533 with tags, fused parts or gaps DEL746-750): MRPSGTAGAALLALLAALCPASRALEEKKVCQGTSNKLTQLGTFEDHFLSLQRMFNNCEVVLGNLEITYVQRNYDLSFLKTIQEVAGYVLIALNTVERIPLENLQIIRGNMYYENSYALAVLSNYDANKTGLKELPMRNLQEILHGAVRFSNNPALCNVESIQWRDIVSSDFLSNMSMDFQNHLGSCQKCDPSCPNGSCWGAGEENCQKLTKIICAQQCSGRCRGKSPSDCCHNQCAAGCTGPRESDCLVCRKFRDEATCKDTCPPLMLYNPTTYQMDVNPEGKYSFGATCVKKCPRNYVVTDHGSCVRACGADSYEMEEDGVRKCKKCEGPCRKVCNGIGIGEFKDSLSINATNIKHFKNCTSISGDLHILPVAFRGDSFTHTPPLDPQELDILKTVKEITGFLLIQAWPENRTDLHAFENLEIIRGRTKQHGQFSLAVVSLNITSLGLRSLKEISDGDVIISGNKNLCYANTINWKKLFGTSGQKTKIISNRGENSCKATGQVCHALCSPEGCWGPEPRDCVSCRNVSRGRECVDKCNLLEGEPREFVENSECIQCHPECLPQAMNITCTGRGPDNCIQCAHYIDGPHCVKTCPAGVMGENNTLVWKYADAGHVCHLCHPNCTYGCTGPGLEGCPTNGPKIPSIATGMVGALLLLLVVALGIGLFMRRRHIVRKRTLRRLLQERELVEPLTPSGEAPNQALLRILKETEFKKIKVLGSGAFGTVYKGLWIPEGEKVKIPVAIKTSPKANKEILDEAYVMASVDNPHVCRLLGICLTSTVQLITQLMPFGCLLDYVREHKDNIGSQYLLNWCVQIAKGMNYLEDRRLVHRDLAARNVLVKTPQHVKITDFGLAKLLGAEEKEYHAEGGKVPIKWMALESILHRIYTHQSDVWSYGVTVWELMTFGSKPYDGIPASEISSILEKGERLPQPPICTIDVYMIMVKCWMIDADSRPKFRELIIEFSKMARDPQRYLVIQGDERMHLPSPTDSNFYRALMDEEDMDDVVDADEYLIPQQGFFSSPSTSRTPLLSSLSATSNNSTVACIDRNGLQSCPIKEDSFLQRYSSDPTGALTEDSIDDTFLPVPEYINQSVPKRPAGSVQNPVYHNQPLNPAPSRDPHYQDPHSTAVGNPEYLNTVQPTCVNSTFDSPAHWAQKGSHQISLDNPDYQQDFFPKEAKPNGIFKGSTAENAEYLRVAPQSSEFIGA

Ba/F3-FL-EGFR-del19-T790M-C797S, sequence (P00533 with tags, fused parts or gaps DEL746-750/T790M/C797S): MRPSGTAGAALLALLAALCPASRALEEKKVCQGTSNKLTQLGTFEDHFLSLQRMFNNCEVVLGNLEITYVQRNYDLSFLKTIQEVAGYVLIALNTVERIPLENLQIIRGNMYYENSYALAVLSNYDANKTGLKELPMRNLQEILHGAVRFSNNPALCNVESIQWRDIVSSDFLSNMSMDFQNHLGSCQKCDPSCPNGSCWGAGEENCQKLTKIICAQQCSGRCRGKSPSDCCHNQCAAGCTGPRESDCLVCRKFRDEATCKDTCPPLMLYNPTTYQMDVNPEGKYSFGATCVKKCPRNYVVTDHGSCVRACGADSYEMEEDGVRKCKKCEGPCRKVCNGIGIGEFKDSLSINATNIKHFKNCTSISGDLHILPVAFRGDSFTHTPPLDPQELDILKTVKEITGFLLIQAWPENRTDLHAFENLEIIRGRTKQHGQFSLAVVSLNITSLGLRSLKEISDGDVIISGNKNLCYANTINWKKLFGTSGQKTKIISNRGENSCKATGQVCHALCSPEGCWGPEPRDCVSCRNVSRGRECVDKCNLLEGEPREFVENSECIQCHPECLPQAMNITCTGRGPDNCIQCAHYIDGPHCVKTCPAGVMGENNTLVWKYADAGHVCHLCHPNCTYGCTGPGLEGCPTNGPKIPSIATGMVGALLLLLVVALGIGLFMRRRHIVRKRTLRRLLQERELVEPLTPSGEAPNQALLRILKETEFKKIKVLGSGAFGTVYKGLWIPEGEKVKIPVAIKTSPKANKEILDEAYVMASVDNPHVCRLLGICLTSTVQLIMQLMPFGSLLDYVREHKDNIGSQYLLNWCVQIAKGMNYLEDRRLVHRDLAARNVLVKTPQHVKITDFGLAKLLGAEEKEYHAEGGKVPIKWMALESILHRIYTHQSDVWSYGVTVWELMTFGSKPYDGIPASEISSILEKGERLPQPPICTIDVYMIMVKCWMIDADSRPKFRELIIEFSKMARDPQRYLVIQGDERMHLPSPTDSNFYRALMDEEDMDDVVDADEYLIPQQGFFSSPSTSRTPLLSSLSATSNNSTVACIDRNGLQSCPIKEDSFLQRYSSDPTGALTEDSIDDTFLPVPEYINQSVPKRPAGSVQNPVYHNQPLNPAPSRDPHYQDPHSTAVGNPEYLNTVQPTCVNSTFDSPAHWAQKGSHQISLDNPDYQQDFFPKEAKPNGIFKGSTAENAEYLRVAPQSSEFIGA
EGFR (L858R/C797S), sequence (P00533 25-1210 C797S/L858R): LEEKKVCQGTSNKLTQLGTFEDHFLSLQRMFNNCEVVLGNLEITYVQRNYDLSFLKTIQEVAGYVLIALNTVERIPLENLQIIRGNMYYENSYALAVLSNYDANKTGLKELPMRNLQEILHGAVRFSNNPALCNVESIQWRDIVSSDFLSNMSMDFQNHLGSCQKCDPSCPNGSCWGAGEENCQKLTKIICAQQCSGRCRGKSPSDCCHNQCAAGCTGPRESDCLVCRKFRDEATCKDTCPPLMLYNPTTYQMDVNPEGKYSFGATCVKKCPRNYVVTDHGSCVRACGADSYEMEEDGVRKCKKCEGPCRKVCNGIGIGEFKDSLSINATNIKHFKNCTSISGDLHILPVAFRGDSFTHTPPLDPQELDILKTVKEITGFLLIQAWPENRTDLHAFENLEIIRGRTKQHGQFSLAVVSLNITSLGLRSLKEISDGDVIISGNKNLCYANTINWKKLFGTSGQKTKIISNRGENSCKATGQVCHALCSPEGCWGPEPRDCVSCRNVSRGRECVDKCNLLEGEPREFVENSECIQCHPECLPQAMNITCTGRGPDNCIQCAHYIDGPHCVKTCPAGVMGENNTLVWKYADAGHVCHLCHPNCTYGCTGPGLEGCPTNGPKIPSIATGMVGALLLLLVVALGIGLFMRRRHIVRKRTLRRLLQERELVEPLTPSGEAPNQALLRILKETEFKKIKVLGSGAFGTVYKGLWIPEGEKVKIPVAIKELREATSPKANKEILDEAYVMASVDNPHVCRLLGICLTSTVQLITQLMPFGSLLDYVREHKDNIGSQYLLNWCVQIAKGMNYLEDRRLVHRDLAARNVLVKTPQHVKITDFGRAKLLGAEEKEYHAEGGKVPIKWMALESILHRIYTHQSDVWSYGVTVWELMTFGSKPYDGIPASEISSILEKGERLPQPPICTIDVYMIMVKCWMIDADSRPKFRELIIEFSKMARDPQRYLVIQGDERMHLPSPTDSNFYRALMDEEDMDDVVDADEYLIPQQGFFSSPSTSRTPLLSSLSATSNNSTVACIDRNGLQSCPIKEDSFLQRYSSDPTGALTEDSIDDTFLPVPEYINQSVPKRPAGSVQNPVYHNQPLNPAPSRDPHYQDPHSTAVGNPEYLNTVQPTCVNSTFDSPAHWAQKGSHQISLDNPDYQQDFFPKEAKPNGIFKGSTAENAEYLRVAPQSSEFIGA
T1 sequence (P00533 whole entry, change not shown): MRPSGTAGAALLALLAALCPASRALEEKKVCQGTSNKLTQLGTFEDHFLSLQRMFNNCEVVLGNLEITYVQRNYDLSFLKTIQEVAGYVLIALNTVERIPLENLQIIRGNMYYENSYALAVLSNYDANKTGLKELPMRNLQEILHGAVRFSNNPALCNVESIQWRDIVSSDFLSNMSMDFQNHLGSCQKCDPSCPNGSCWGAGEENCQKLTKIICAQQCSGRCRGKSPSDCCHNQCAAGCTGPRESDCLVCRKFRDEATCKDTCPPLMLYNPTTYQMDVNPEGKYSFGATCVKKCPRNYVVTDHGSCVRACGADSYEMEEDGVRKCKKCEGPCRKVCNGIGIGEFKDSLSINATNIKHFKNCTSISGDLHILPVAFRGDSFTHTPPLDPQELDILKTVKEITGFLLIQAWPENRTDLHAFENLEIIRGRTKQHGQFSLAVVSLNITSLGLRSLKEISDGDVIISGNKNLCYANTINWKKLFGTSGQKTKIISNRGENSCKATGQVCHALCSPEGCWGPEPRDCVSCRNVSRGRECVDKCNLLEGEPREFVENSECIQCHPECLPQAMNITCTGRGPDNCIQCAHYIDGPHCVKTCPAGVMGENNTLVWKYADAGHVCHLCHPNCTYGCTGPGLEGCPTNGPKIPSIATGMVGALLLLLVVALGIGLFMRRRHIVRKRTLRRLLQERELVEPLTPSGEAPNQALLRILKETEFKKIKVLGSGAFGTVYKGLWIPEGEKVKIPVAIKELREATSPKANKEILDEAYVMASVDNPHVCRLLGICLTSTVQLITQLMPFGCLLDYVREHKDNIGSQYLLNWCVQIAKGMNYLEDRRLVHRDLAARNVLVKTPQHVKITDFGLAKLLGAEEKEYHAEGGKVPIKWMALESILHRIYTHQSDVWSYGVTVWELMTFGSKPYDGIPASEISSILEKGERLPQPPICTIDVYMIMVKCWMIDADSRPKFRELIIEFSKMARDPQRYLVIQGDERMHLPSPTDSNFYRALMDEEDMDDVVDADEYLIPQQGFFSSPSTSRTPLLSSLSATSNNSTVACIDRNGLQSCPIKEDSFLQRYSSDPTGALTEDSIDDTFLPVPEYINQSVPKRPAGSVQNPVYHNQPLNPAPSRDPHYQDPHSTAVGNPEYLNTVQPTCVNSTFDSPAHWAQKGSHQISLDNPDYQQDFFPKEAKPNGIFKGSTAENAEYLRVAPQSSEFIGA

| CLint scaled at 1 μM [1] [mL/min/kg] | GI50 (Ba/F3-FL-EGFR) [nM] | GI50 [2] [nM] | GI50 [3] [nM] | IC50 (EGFR (L858R/C797S)) [nM] | GI50 [4] [nM] | Compound |
| --- | --- | --- | --- | --- | --- | --- |
| 14.2 | 209 | 7.8 | 16 | 0.6 | 15 | CC(C)c1ccc(N2C[C@H](CS(C)(=O)=O)[C@H]2C)c2cnc(Nc3ccnc(-c4cnn(S(=O)(=O)C5CC5)c4)n3)cc12 [Compound H12] |
| < 8.6 | 670 | 8.4 | 8.8 | 2 | 41 | CC(C)c1ccc(N2CC(N(C)S(C)(=O)=O)C2)c2cnc(Nc3ccnc(N4CC[C@@H](O)[C@@H](F)C4)n3)cc12 [Compound P39a] |
